According to publication PMC5218480 (PLoS ONE, 2017):

Test system: MV-4-11 cells
Assay: Gene expression microarray analysis (Affymetrix PrimeView) and GSEA
Type: cell-based, human
Set-up: RFU PODN (11730768_x_at) / Fold change /veh PODN (11730768_x_at) / RFU LINC00158 (11744669_a_at) / Fold change /veh LINC00158 (11744669_a_at) / RFU DUSP10 (11751237_a_at) / Fold change /veh DUSP10 (11751237_a_at) / RFU ID3 (11757404_x_at) / Fold change /veh ID3 (11757404_x_at) / RFU PLEKHG5 (11737974_s_at) / Fold change /veh PLEKHG5 (11737974_s_at) / RFU LRRC4B (11730491_at) / Fold change /veh LRRC4B (11730491_at) / RFU GIMAP4 (11747438_a_at) / Fold change /veh GIMAP4 (11747438_a_at) / RFU KRT8 (11758183_x_at) / Fold change /veh KRT8 (11758183_x_at) / RFU CNN1 (11734310_a_at) / Fold change /veh CNN1 (11734310_a_at) / RFU VPS37D (11726825_at) / Fold change /veh VPS37D (11726825_at) / RFU C10orf10 (11716522_x_at) / Fold change /veh C10orf10 (11716522_x_at) / RFU KIR2DL2 /// KIR2DL4 /// KIR2DL5A /// KIR2DL5B /// KIR2DS1 /// KIR2DS2 /// KIR2DS3 /// KIR2DS4 /// KIR3DL3 /// KIR3DL3 /// KIR3DS1 (11738374_at) / Fold change /veh KIR2DL2 /// KIR2DL4 /// KIR2DL5A /// KIR2DL5B /// KIR2DS1 /// KIR2DS2 /// KIR2DS3 /// KIR2DS4 /// KIR3DL3 /// KIR3DL3 /// KIR3DS1 (11738374_at) / RFU C1QL1 (11718748_at) / Fold change /veh C1QL1 (11718748_at) / RFU TMPRSS4 (11747572_a_at) / Fold change /veh TMPRSS4 (11747572_a_at) / RFU HAMP (11756126_x_at) / Fold change /veh HAMP (11756126_x_at) / RFU RNFT2 (11725882_a_at) / Fold change /veh RNFT2 (11725882_a_at) / RFU NR4A2 (11747474_a_at) / Fold change /veh NR4A2 (11747474_a_at) / RFU ABCC12 (11746883_a_at) / Fold change /veh ABCC12 (11746883_a_at) / RFU TMEM136 (11760407_x_at) / Fold change /veh TMEM136 (11760407_x_at) / RFU CLDN22 /// WWC2 (11732394_at) / Fold change /veh CLDN22 /// WWC2 (11732394_at) / RFU HLA-DPB1 (11760878_x_at) / Fold change /veh HLA-DPB1 (11760878_x_at) / RFU SPINT1 (11716480_a_at) / Fold change /veh SPINT1 (11716480_a_at) / RFU GAP43 (11754022_s_at) / Fold change /veh GAP43 (11754022_s_at) / RFU A4GNT (11735810_at) / Fold change /veh A4GNT (11735810_at) / RFU PRB3 (11715151_x_at) / Fold change /veh PRB3 (11715151_x_at) / RFU TUBB4B (11761932_at) / Fold change /veh TUBB4B (11761932_at) / RFU CAPN14 (11732068_a_at) / Fold change /veh CAPN14 (11732068_a_at) / RFU TMCC2 (11721928_a_at) / Fold change /veh TMCC2 (11721928_a_at) / RFU IRGQ (11745062_a_at) / Fold change /veh IRGQ (11745062_a_at) / RFU FAM174B (11720279_a_at) / Fold change /veh FAM174B (11720279_a_at) / RFU TMPRSS4 (11748680_a_at) / Fold change /veh TMPRSS4 (11748680_a_at) / RFU FAM212B (11763350_a_at) / Fold change /veh FAM212B (11763350_a_at) / RFU PLEKHG5 (11743358_a_at) / Fold change /veh PLEKHG5 (11743358_a_at) / RFU ZSCAN30 (11745921_a_at) / Fold change /veh ZSCAN30 (11745921_a_at) / RFU CMKLR1 (11741424_a_at) / Fold change /veh CMKLR1 (11741424_a_at) / RFU LOC101060620 /// MAPK8IP1 (11723275_at) / Fold change /veh LOC101060620 /// MAPK8IP1 (11723275_at) / RFU SPTSSB (11747773_x_at) / Fold change /veh SPTSSB (11747773_x_at) / RFU PRSS12 (11739890_at) / Fold change /veh PRSS12 (11739890_at) / RFU BIN1 (11741810_x_at) / Fold change /veh BIN1 (11741810_x_at) / RFU WNT11 (11732464_a_at) / Fold change /veh WNT11 (11732464_a_at) / RFU C10orf10 (11716521_a_at) / Fold change /veh C10orf10 (11716521_a_at) / RFU C5orf56 (11738089_at) / Fold change /veh C5orf56 (11738089_at) / RFU CYB561 (11721691_x_at) / Fold change /veh CYB561 (11721691_x_at) / RFU ANKRD19P (11752326_a_at) / Fold change /veh ANKRD19P (11752326_a_at) / RFU OR2T12 /// OR2T33 /// OR2T8 (11738714_s_at) / Fold change /veh OR2T12 /// OR2T33 /// OR2T8 (11738714_s_at) / RFU VCAN (11748164_a_at) / Fold change /veh VCAN (11748164_a_at) / RFU JSRP1 (11732532_at) / Fold change /veh JSRP1 (11732532_at) / RFU KRTAP10-11 (11738290_x_at) / Fold change /veh KRTAP10-11 (11738290_x_at) / RFU MYO3A (11730013_a_at) / Fold change /veh MYO3A (11730013_a_at) / RFU EBF3 (11725865_a_at) / Fold change /veh EBF3 (11725865_a_at) / RFU CAMK2N1 (11719241_x_at) / Fold change /veh CAMK2N1 (11719241_x_at) / RFU C5orf56 (11738088_a_at) / Fold change /veh C5orf56 (11738088_a_at) / RFU OLFML3 (11715873_a_at) / Fold change /veh OLFML3 (11715873_a_at) / RFU LOC100653217 /// NTM (11731650_a_at) / Fold change /veh LOC100653217 /// NTM (11731650_a_at) / RFU MAPK11 (11762145_a_at) / Fold change /veh MAPK11 (11762145_a_at) / RFU FIZ1 (11724087_x_at) / Fold change /veh FIZ1 (11724087_x_at) / RFU OASL (11726364_x_at) / Fold change /veh OASL (11726364_x_at) / RFU SOX15 (11748057_x_at) / Fold change /veh SOX15 (11748057_x_at) / RFU CD79A (11719716_a_at) / Fold change /veh CD79A (11719716_a_at) / RFU HIST1H1D (11736915_at) / Fold change /veh HIST1H1D (11736915_at) / RFU CASKIN2 (11723855_a_at) / Fold change /veh CASKIN2 (11723855_a_at) / RFU LOC730098 (11760151_x_at) / Fold change /veh LOC730098 (11760151_x_at) / RFU OR4N2 (11742367_at) / Fold change /veh OR4N2 (11742367_at) / RFU PRRT2 (11749266_a_at) / Fold change /veh PRRT2 (11749266_a_at) / RFU SNX32 (11753110_a_at) / Fold change /veh SNX32 (11753110_a_at) / RFU CDHR5 (11726645_a_at) / Fold change /veh CDHR5 (11726645_a_at) / RFU RCAN1 (11760418_a_at) / Fold change /veh RCAN1 (11760418_a_at) / RFU FAM167A (11723789_a_at) / Fold change /veh FAM167A (11723789_a_at) / RFU FAM26E (11764081_at) / Fold change /veh FAM26E (11764081_at) / RFU ISYNA1 (11749810_s_at) / Fold change /veh ISYNA1 (11749810_s_at) / RFU ACY1 (11761880_at) / Fold change /veh ACY1 (11761880_at) / RFU 11764098_at / Fold change /veh 11764098_at / RFU SAMD14 (11745864_x_at) / Fold change /veh SAMD14 (11745864_x_at) / RFU NPB (11741838_a_at) / Fold change /veh NPB (11741838_a_at) / RFU TMPRSS6 (11731388_a_at) / Fold change /veh TMPRSS6 (11731388_a_at) / RFU KRTAP10-2 (11738614_at) / Fold change /veh KRTAP10-2 (11738614_at) / RFU ARHGAP8 /// PRR5-ARHGAP8 (11727945_x_at) / Fold change /veh ARHGAP8 /// PRR5-ARHGAP8 (11727945_x_at) / RFU KRTAP5-7 /// NADSYN1 (11734609_at) / Fold change /veh KRTAP5-7 /// NADSYN1 (11734609_at) / RFU RASL12 (11751679_a_at) / Fold change /veh RASL12 (11751679_a_at) / RFU CDKN2B (11736163_a_at) / Fold change /veh CDKN2B (11736163_a_at) / RFU PRF1 (11729649_at) / Fold change /veh PRF1 (11729649_at) / RFU, ZNF638 /// ZNF638-IT1 / Fold change vs veh, ZNF638 /// ZNF638-IT1 / RFU, PANK3 / Fold change vs veh, PANK3 / RFU, SH3YL1 / Fold change vs veh, SH3YL1 / RFU, ZEB2 / Fold change vs veh, ZEB2 / RFU, NRIP1 / Fold change vs veh, NRIP1 / RFU, PTTG1IP / Fold change vs veh, PTTG1IP / RFU, CAPN2 / Fold change vs veh, CAPN2 / RFU, MED14 / Fold change vs veh, MED14 / RFU, SNORA58 / Fold change vs veh, SNORA58 / RFU, C1orf63 / Fold change vs veh, C1orf63 / RFU, LRRFIP1 / Fold change vs veh, LRRFIP1 / RFU, NDUFAF7 / Fold change vs veh, NDUFAF7 / RFU, SLC12A2 / Fold change vs veh, SLC12A2 / RFU, IBTK / Fold change vs veh, IBTK / RFU, ESF1 / Fold change vs veh, ESF1 / Fold change vs veh, TMEM50B / RFU, TAOK1 / Fold change vs veh, TAOK1 / RFU, ACBD3 / Fold change vs veh, ACBD3 / RFU, TMA16 / Fold change vs veh, TMA16 / RFU, RWDD3 / Fold change vs veh, RWDD3 / RFU, BCAT1 / Fold change vs veh, BCAT1 / RFU, EDEM3 / Fold change vs veh, EDEM3 / RFU, TMEM33 / Fold change vs veh, TMEM33 / RFU, WDR75 / Fold change vs veh, WDR75 / RFU, AHCTF1 / Fold change vs veh, AHCTF1 / RFU, TFRC / Fold change vs veh, TFRC / RFU, ZDHHC17 / Fold change vs veh, ZDHHC17 / RFU, NOM1 / Fold change vs veh, NOM1 / RFU, ARL8B / Fold change vs veh, ARL8B / RFU, ZBTB11 / Fold change vs veh, ZBTB11 / RFU, TAMM41 / Fold change vs veh, TAMM41 / RFU, KIAA1704 /// LOC100996395 / Fold change vs veh, KIAA1704 /// LOC100996395 / RFU, ING1 / Fold change vs veh, ING1 / RFU, TRMT61B / Fold change vs veh, TRMT61B / RFU, FUBP3 / Fold change vs veh, FUBP3 / RFU, TP53 / Fold change vs veh, TP53 / RFU, TNKS2 / Fold change vs veh, TNKS2 / RFU, ZFP14 / Fold change vs veh, ZFP14 / RFU, ACTR2 / Fold change vs veh, ACTR2 / RFU, PPP3R1 / Fold change vs veh, PPP3R1 / RFU, PIK3R1 / Fold change vs veh, PIK3R1 / RFU, HNRNPA1 / Fold change vs veh, HNRNPA1 / RFU, RNF170 / Fold change vs veh, RNF170 / RFU, ZNF28 / Fold change vs veh, ZNF28 / RFU, RNGTT / Fold change vs veh, RNGTT / RFU, OGT / Fold change vs veh, OGT / RFU, BRD1 / Fold change vs veh, BRD1 / RFU, MARS / Fold change vs veh, MARS / RFU, ZNF655 / Fold change vs veh, ZNF655 / RFU, FAHD1 / Fold change vs veh, FAHD1 / RFU, BDP1 / Fold change vs veh, BDP1 / RFU, LRRCC1 / Fold change vs veh, LRRCC1 / RFU, ARID1A / Fold change vs veh, ARID1A / RFU, ZNF146 / Fold change vs veh, ZNF146 / RFU, ZNF330 / Fold change vs veh, ZNF330 / RFU, GPN3 / Fold change vs veh, GPN3 / RFU, C9orf123 / Fold change vs veh, C9orf123 / RFU, N4BP2L2 / Fold change vs veh, N4BP2L2 / RFU, ARFIP1 / Fold change vs veh, ARFIP1 / RFU, FAM179B / Fold change vs veh, FAM179B / RFU, BCL10 / Fold change vs veh, BCL10 / RFU, UHRF1BP1L / Fold change vs veh, UHRF1BP1L / RFU, BET1 / Fold change vs veh, BET1 / RFU, CNOT2 / Fold change vs veh, CNOT2 / RFU, ZNF268 / Fold change vs veh, ZNF268 / Fold change vs veh, ZNF507 / RFU, DGCR2 / Fold change vs veh, DGCR2 / RFU, WDSUB1 / Fold change vs veh, WDSUB1 / Fold change vs veh, HSP90B1 /// MIR3652 / RFU, ADSS / Fold change vs veh, ADSS / RFU, GK / Fold change vs veh, GK / RFU, ZNF148 / Fold change vs veh, ZNF148 / RFU, TAF9 / Fold change vs veh, TAF9 / RFU, SLC1A5 / Fold change vs veh, SLC1A5 / RFU, SLMO2 / Fold change vs veh, SLMO2 / RFU, ABCC4 / Fold change vs veh, ABCC4 / RFU, LOC101060439 /// RAP1B / Fold change vs veh, LOC101060439 /// RAP1B / RFU, RFX7 / Fold change vs veh, RFX7 / RFU, GTPBP10 / Fold change vs veh, GTPBP10 / RFU, CNEP1R1 / Fold change vs veh, CNEP1R1 / RFU, BIVM-ERCC5 /// ERCC5 / Fold change vs veh, BIVM-ERCC5 /// ERCC5 / RFU, ILF3 / Fold change vs veh, ILF3 / RFU 11762660_at / Fold change /veh 11762660_at / RFU VCAN (11757783_s_at) / Fold change /veh VCAN (11757783_s_at) / RFU DDX43 (11728927_at) / Fold change /veh DDX43 (11728927_at) / RFU KRT8 (11758188_x_at) / Fold change /veh KRT8 (11758188_x_at) / RFU NKD1 (11759106_at) / Fold change /veh NKD1 (11759106_at) / RFU SRD5A1 (11742802_a_at) / Fold change /veh SRD5A1 (11742802_a_at) / RFU TPSAB1 /// TPSB2 (11721975_s_at) / Fold change /veh TPSAB1 /// TPSB2 (11721975_s_at) / RFU GSTM3 (11746129_a_at) / Fold change /veh GSTM3 (11746129_a_at) / RFU IL23R (11737362_x_at) / Fold change /veh IL23R (11737362_x_at) / RFU TMEM51 (11727254_a_at) / Fold change /veh TMEM51 (11727254_a_at) / RFU PIWIL2 (11732686_x_at) / Fold change /veh PIWIL2 (11732686_x_at) / RFU ORM1 (11744905_x_at) / Fold change /veh ORM1 (11744905_x_at) / RFU CCDC152 (11743942_at) / Fold change /veh CCDC152 (11743942_at) / RFU ECM1 (11717891_a_at) / Fold change /veh ECM1 (11717891_a_at) / RFU IL23R (11748794_a_at) / Fold change /veh IL23R (11748794_a_at) / RFU TNFAIP8L3 (11732012_x_at) / Fold change /veh TNFAIP8L3 (11732012_x_at) / RFU MBOAT4 (11741988_at) / Fold change /veh MBOAT4 (11741988_at) / RFU 11764193_at / Fold change /veh 11764193_at / RFU TMEM53 (11763286_at) / Fold change /veh TMEM53 (11763286_at) / RFU MAGEB2 (11727129_at) / Fold change /veh MAGEB2 (11727129_at) / RFU TMEM200A (11744735_a_at) / Fold change /veh TMEM200A (11744735_a_at) / RFU CCDC152 (11751479_a_at) / Fold change /veh CCDC152 (11751479_a_at) / RFU FAM211A (11726209_a_at) / Fold change /veh FAM211A (11726209_a_at) / RFU RGS16 (11746705_a_at) / Fold change /veh RGS16 (11746705_a_at) / RFU VCAN (11755009_s_at) / Fold change /veh VCAN (11755009_s_at) / RFU RHOB (11743442_s_at) / Fold change /veh RHOB (11743442_s_at) / RFU RGS16 (11720943_a_at) / Fold change /veh RGS16 (11720943_a_at) / RFU RGS16 (11720944_at) / Fold change /veh RGS16 (11720944_at) / RFU, VPS4B / Fold change vs veh, VPS4B / RFU, CREB1 / Fold change vs veh, CREB1 / RFU, DNAJC13 / Fold change vs veh, DNAJC13 / RFU, GNAQ / Fold change vs veh, GNAQ / RFU, CDK5R1 / Fold change vs veh, CDK5R1 / RFU, ZRANB3 / Fold change vs veh, ZRANB3 / RFU, CUL4A / Fold change vs veh, CUL4A / RFU, CCNY / Fold change vs veh, CCNY / RFU, UFL1 / Fold change vs veh, UFL1 / RFU, COG3 / Fold change vs veh, COG3 / RFU, DIAPH2 / Fold change vs veh, DIAPH2 / RFU, SKA2 / Fold change vs veh, SKA2 / RFU, AFF3 / Fold change vs veh, AFF3 / RFU, LMF1 / Fold change vs veh, LMF1 / RFU, IPO11 / Fold change vs veh, IPO11 / RFU, DFFB / Fold change vs veh, DFFB / RFU, FOXP1 / Fold change vs veh, FOXP1 / RFU, CARD8 / Fold change vs veh, CARD8 / RFU, STRN3 / Fold change vs veh, STRN3 / RFU, ADK / Fold change vs veh, ADK / RFU, RASSF2 / Fold change vs veh, RASSF2 / RFU, WIPF1 / Fold change vs veh, WIPF1 / RFU, LARP1B / Fold change vs veh, LARP1B / RFU, RASA1 / Fold change vs veh, RASA1 / RFU, RB1 / Fold change vs veh, RB1 / RFU, PPFIA1 / Fold change vs veh, PPFIA1 / RFU, MAT2A / Fold change vs veh, MAT2A / RFU, CCT5 / Fold change vs veh, CCT5 / RFU, WDR92 / Fold change vs veh, WDR92 / RFU, CUX1 / Fold change vs veh, CUX1 / RFU, TTC7A / Fold change vs veh, TTC7A / RFU, TMEM135 / Fold change vs veh, TMEM135 / RFU, DEPTOR / Fold change vs veh, DEPTOR / RFU, CPM / Fold change vs veh, CPM / RFU, DNAJB6 / Fold change vs veh, DNAJB6 / RFU, CACNA2D3 / Fold change vs veh, CACNA2D3 / RFU, DTX4 / Fold change vs veh, DTX4 / RFU, TFCP2 / Fold change vs veh, TFCP2 / RFU, GMCL1 /// GMCL1P1 / Fold change vs veh, GMCL1 /// GMCL1P1 / RFU, AEBP2 / Fold change vs veh, AEBP2 / RFU, SNHG1 /// SNORD22 /// SNORD25 /// SNORD26 /// SNORD27 /// SNORD28 /// SNORD29 /// SNORD31 / Fold change vs veh, SNHG1 /// SNORD22 /// SNORD25 /// SNORD26 /// SNORD27 /// SNORD28 /// SNORD29 /// SNORD31 / Fold change (Aza/veh), C12orf56 (ProbeSet 11735607_a_at) / Fold change (ACY-1035/veh), C12orf56 (ProbeSet 11735607_a_at) / Fold change (Aza/veh), FGFR1OP (ProbeSet 11751329_s_at) / Fold change (ACY-1035/veh), FGFR1OP (ProbeSet 11751329_s_at) / Fold change (Aza/veh), VPS36 (ProbeSet 11739960_a_at) / Fold change (ACY-1035/veh), VPS36 (ProbeSet 11739960_a_at) / RFU SYPL1 (11715823_x_at) / Fold change /veh SYPL1 (11715823_x_at) / RFU IGFBP7 (11715501_s_at) / Fold change /veh IGFBP7 (11715501_s_at) / RFU REEP3 (11722064_at) / Fold change /veh REEP3 (11722064_at) / RFU IGLL1 (11728026_x_at) / Fold change /veh IGLL1 (11728026_x_at): dose or concentration left out as unconfirmed
Details: ProbeSet 11727641_at; LIST B

**Q.** With Nc1ncn([C@@H]2O[C@H](CO)[C@@H](O)[C@H]2O)c(=O)n1 [azacitidine] as the compound, how does the “RFU, NOM1” value read?
**A.** Its value is 178.62 RFU.
